Patent US6676932B2, “Ultraviolet absorbent, photostabilizer, ultraviolet ray-absorbing composition, photostabilized composition and external preparation for skin” (Shiseido Co., Ltd., priority 2001, dated 2004)

Experiments:
[1] = Dye stabilization effect under daylight exposure (Test Examples 6-91); assay type: physicochemical; set-up: key to Δ E: color difference ΔE in Lab vs. color before daylight exposure; key to Appearance (visual determination): ◯: no change; Δ: almost no change; x: change; settings: photostabilizer 0.05 wt %, daylight exposure (80 MJ)
Summary of the method: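 Test samples exposed to daylight to 80 MJ; appearance judged visually. Colour measured by spectrophotometer in Lab coordinates, with ΔE calculated relative to pre-exposure values (L1, a1, b1).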

[2] = Drug stabilization effect under daylight exposure (Test Examples 182 to 211); assay type: physicochemical; set-up: key to Appearance (visual determination): ◯: no change; Δ: almost no change; x: change; settings: drug salicylic acid 0.1 wt %, photostabilizer 0.05 wt %, daylight exposure (80 MJ)
Protocol: For observation of the change of the appearance of each test sample (determination based on visual observation) and the measurement of the remaining ratio by liquid chromatography before and after daylight exposure (80 MJ), the test sample was prepared.

[3] = Stabilization effect on perfume under daylight exposure (Test Examples 92 to 181); assay type: physicochemical; set-up: key: ◯: no change; Δ: almost no change; x: change; settings: daylight exposure (80 MJ)
Protocol: Each test sample was prepared for observation of the change of the odor of the test sample (determined by perfume coordinator) before and after daylight exposure (80 MJ).

sunburn = test: Ultraviolet preventive effect, application test on beach in summer (Test Example 2); assay type: in vivo, human
Protocol: An application test was carried out on beach in summer. Equal volumes of samples were individually coated on back halves of subjects. After exposure to direct daylight, the degree of sunburn was assessed according to the following assessment standards. Each group consists of 10 subjects.
Prominently effective: none or almost no sunburn symptom was observed.
Effective: light sunburn symptom was observed.
Ineffective: strong sunburn symptom was observed.
⊚: prominently effective or effective for 80% or more of the subjects.
◯: prominently effective or effective for 50% or more to less than 80% of the subjects.
Δ: prominently effective or effective for 30% or more to less than 50% of the subjects.
x: prominently effective or effective for less than 30% of the subjects.
The aqueous phase and the alcohol phase were separately prepared and then mixed together.
Propylene glycol was added to and dissolved in ion exchange water. The resulting solution was retained at 70° C. under heating (aqueous phase). Other ingredients were mixed […]. The resulting mixture was melted under heating and retained at 70° C. (oil phase). The oil phase was added to the aqueous phase, for preliminary emulsification with a homomixer to homogeneity. Under thorough mixing, subsequently, the mixture was cooled to 30° C.

skin [4] = test: Test of skin irritation: 24-hour occlusion patch test (Test Example 3 ii); assay type: in vivo, human; settings: 10 wt % ultraviolet absorbent
Protocol: (§1) The same samples as in the Test Example 2 were used (at a 10 wt % amount of an ultraviolet absorbent).
20 Healthy male and female volunteers per one group were carried out in a 24-hour occlusion patch test, using a fin chamber on forearm curves. Assessment was done on the basis of the following assessment standards.
Mean score was determined for the assessment on the basis of the following standards.
(§2) ◯: mean score of more than 0 to less than 1.
(§3) Δ: mean score of 1 or more to less than 2.
(§4) x: mean score of 2 or more.

skin [5] = test: Test of skin irritation: continuous application test (Test Example 3 i); assay type: in vivo, human; settings: 10 wt % ultraviolet absorbent, twice daily for 4 weeks
Protocol: as §1
Continuous application test was carried out for 20 healthy subjects per one group. An appropriate amount of each of the samples was coated twice daily for 4 weeks. The effects were assessed according to the following assessment standards.
Mean score was calculated for the determination of the effect on the basis of the following standards.
as §2, §3, §4

[6] = Photostability test of aqueous solutions under daylight (Test Example 4); assay type: physicochemical; settings: aqueous solution, daylight for 2 weeks (80 MJ)
Protocol: Aqueous solutions of the pyridazine derivative of the invention were exposed to daylight for 2 weeks (at a daylight exposure of 80 MJ). Subsequently, the remaining ratio and the change of the appearance were examined to measure the ultraviolet spectra with a spectrophotometer (solvent: water; concentration of 10 ppm and optical path length of 1 cm). The area under ultraviolet spectra curve from 290 nm to 400 nm were determined by integration to compare the area with the area before daylight exposure.
The remaining ratio and the change of the area under the ultraviolet spectrum were determined on the basis of the following standards.
⊚: 95% or more of those before daylight exposure.
◯: 90% or more to less than 95% of those before daylight exposure.
Δ: 70% or more to less than 90% of those before daylight exposure.
x: less than 70% of those before daylight exposure.

[7] = Stability test in combination with inorganic powder-based ultraviolet shielding agent, sunscreen cream (Test Example 5); assay type: physicochemical; settings: sunscreen cream with inorganic powders; ultraviolet absorbent 10.0 wt %; 50° C. for 2 months; visual observation
Protocol: A sunscreen cream of the following formulation was prepared and stored at 50° C. for 2 months. Under visual observation of the color change, the stability of the inventive pyridazine derivative in combination with inorganic powder-based ultraviolet screening agents commonly in blend as external preparations for skin for the purpose of ultraviolet prevention was examined.
After the ingredient 2 was added to the ingredient 1 to swell the ingredient 2, the ingredients 3 to 11 were mixed with the resulting mixture under heating, for sufficient dispersion and dissolution. While keeping the dispersion at 70° C., a solution of the mixture of the ingredients 12 to 15 was gradually added to the dispersion under thorough emulsification with a homomixer. The resulting mixture was cooled to 30° C. under sufficient stirring to prepare sunscreen creams.

[8] = dye Blue 1 (Brilliant Blue FCF) 0.0001 wt %
[9] = dye Green 3 (Fast Green FCF) 0.001 wt %
[10] = dye Red 227 (Acid Fuchsine D) 0.0001 wt %
[11] = dye Yellow 5 (Sunset Yellow FCF) 0.001 wt %
[12] = dyes Red 227 (Acid Fuchsine D) 0.0001 + Yellow 5 (Sunset Yellow FCF) 0.0001 wt %

For `Oc1nnccc1N1CCCCC1` [3-Hydroxy-4-piperidinopyridazine, 3-hydroxy-4-piperidinopyridazine], the “Appearance (visual determination)” value [1, 8] was “◯”, the “Δ E” value [1, 8] was 1.24 and the “Appearance (visual determination)” value [1, 9] was “◯”. The “Δ E” value [1, 9] was 0.46, the “Appearance (visual determination)” value [1, 10] was “◯” and the “Δ E” value [1, 10] was 0.54. The “Appearance (visual determination)” value [1, 11] was “◯”, the “Δ E” value [1, 11] was 0.58 and the “Appearance (visual determination)” value [1, 12] was “◯”. The “Δ E” value [1, 12] was 0.65, the “Appearance (visual determination)” value [2] was “◯” and the “Remaining ratio (%)” value ([2]; liquid chromatography) was 98.4%. For the same compound, the odor determination ([3]; base perfume Rose, photostabilizer 0.05 wt %) was “◯”, the odor determination ([3]; base perfume Woody, photostabilizer 0.1 wt %) was “◯” and the odor determination ([3]; natural perfume Rose oil, photostabilizer 0.05 wt %) was “◯”. For the same compound, the Ultraviolet prevention effect (sunburn; cream, blend amount 0.0005 wt %) was “Δ (prominently effective or effective for 30% or more to less than 50% of the subjects)”, the Ultraviolet prevention effect (sunburn; cream, blend amount 0.001 wt %) was “◯ (prominently effective or effective for 50% or more to less than 80% of the subjects)” and the Ultraviolet prevention effect (sunburn; cream, blend amount 0.01 wt %) was “⊚ (prominently effective or effective for 80% or more of the subjects)”. The Ultraviolet prevention effect (sunburn; cream, blend amount 1 wt %) was “⊚ (prominently effective or effective for 80% or more of the subjects)”, the Ultraviolet prevention effect (sunburn; cream, blend amount 5 wt %) was “⊚ (prominently effective or effective for 80% or more of the subjects)” and the Ultraviolet prevention effect (sunburn; cream, blend amount 10 wt %) was “⊚ (prominently effective or effective for 80% or more of the subjects)”. The Ultraviolet prevention effect (sunburn; cream, blend amount 20 wt %) was “⊚ (prominently effective or effective for 80% or more of the subjects)”, the Ultraviolet prevention effect (sunburn; lotion, blend amount 0.0005 wt %) was “Δ (prominently effective or effective for 30% or more to less than 50% of the subjects)” and the Ultraviolet prevention effect (sunburn; lotion, blend amount 0.001 wt %) was “◯ (prominently effective or effective for 50% or more to less than 80% of the subjects)”. The Ultraviolet prevention effect (sunburn; lotion, blend amount 0.01 wt %) was “⊚ (prominently effective or effective for 80% or more of the subjects)”, the Ultraviolet prevention effect (sunburn; lotion, blend amount 1 wt %) was “⊚ (prominently effective or effective for 80% or more of the subjects)” and the Ultraviolet prevention effect (sunburn; lotion, blend amount 5 wt %) was “⊚ (prominently effective or effective for 80% or more of the subjects)”. For the same compound, the Ultraviolet prevention effect (sunburn; lotion, blend amount 10 wt %) was “⊚ (prominently effective or effective for 80% or more of the subjects)”, the Ultraviolet prevention effect (sunburn; lotion, blend amount 20 wt %) was “⊚ (prominently effective or effective for 80% or more of the subjects)” and the “Determination (skin reaction, patch test)” value (skin [4]; cream) was “⊚ (mean score of 0)”. For the same compound, the “Determination (skin reaction, patch test)” value (skin [4]; lotion) was “⊚ (mean score of 0)”, the “Determination (skin reaction, continuous application test)” value (skin [5]; cream) was “⊚ (mean score of 0)” and the “Determination (skin reaction, continuous application test)” value (skin [5]; lotion) was “⊚ (mean score of 0)”. The Remaining ratio [6] was “⊚ (95% or more of those before daylight exposure)”, the “Change of area under ultraviolet spectrum” value ([6]; 290 nm to 400 nm) was “⊚ (95% or more of those before daylight exposure)” and the Color change [7] was “no”.
